# According to patent US20040157809A1, “Composition comprising an androgen receptor blocker and an insulin sensitizing agent and use thereof for treatment of polycystic ovary syndrome” (priority 2001, published 2004):
# Tests used:
# [1] = tested on: women with ovarian hyperandrogenism; assay: Example 1: ovulation assessment by weekly serum progesterone; format: in vivo, human; conditions: after 9 months; weekly serum progesterone measurements
# Excerpt: Prior to start of treatment, ovulatory function was documented twice (months −3 and −1) by measuring serum progesterone concentrations in 4 consecutive samples obtained with an interval of 1 week. […] The ovulation results before start of treatment are the average of the results obtained during month -3 and -1, whereas the 3 months results are the mean of those obtained after 2 and 4 months on treatment.
# [2] = tested on: women with ovarian hyperandrogenism; assay: Example 1: tolerability and safety variables (blood count, liver-kidney function); format: in vivo, human; conditions: flutamide 250 mg/day
# Excerpt: After 6 months on either monotherapy or combined therapy, fasting glucose and insulin were reassessed together with serum LH (luteinizing hormone), FSH (Follicle stimulating hormone), estradiol, testosterone, androstenedione, DHEAS, SHBG, and lipid profile. Blood count and liver-kidney function were also screened after 1, 3, and 6 months, as additional safety variables.
structure (smiles),measurement,setting,value
"CC(C)C(=O)Nc1ccc([N+](=O)[O-])c(C(F)(F)F)c1 [Flutamide, 2-methyl-N-[4-nitro-3(trifluoromethyl)phenyl] popanamide]",monthly fraction of ovulatory cycles,[1],20%
same,women complaining of dry skin,[2],1 of 10
